Data taken from US20160031855A1, “PROTEIN KINASE INHIBITORS” (ORION CORPORATION, priority 2013, published 2016).
Structures can show the parent of a compound that is named as a salt.

Target: T1, FGFR1 kinase (Homo sapiens, UniProt P11362)
T1 construct: purchased Upstate, USA
Experiment: TR-FRET assay with FGFR1 kinase
Assay type: biochemical
Conditions: 13 μM ATP; for IC50: dose response, read-out: IC50 of FGFR1 inhibition; for inhibition at 1 µM / Inhibition (%) of FGFR1 at 1000 nM: compound at 1000 nM
Description: 1. Inhibition of FGFR1 kinase
Compounds were screened in the TR-FRET assay with FGFR1 kinase. 5 ng of FGFR1 [Upstate, USA] kinase was used for assay. The compound was incubated with the kinase for 30 minutes at room temperature. After the incubation, substrate mix [40 nM Ultra light poly GT (Perkin Elmer, USA) and 13 μM ATP (Sigma)] was added. The above reaction was stopped by the addition of 40 mM EDTA after the 30 min kinase reaction. The Eu-labelled antiphospho-tyrosine antibody [Perkin Elmer, USA] was added at 0.5 nM and the fluorescence emission at 615 nm/665 nm [excitation at 340 nm] was measured. The compounds were initially screened at 100 nM and 1 μM concentrations. The compounds with >50% inhibition at 100 nM of FGFR1 were taken for the full dose response studies. The final DMSO concentration in the assay was 1%. For IC50 determination, ⅓^rd serial dilution was made from the 20 mM DMSO stock solution. 2 μl of these were transferred to the test wells containing […] of the reaction mixture [total reaction volume 20 μl]. The fluorescence was measured in Perkin Elmer Wallac 1420 Multilabel Counter Victor 3. The IC50 was determined by fitting the dose response data to sigmoidal curve fitting equation using GraphPad Prism software V5.

T1 sequence (P11362 22-822): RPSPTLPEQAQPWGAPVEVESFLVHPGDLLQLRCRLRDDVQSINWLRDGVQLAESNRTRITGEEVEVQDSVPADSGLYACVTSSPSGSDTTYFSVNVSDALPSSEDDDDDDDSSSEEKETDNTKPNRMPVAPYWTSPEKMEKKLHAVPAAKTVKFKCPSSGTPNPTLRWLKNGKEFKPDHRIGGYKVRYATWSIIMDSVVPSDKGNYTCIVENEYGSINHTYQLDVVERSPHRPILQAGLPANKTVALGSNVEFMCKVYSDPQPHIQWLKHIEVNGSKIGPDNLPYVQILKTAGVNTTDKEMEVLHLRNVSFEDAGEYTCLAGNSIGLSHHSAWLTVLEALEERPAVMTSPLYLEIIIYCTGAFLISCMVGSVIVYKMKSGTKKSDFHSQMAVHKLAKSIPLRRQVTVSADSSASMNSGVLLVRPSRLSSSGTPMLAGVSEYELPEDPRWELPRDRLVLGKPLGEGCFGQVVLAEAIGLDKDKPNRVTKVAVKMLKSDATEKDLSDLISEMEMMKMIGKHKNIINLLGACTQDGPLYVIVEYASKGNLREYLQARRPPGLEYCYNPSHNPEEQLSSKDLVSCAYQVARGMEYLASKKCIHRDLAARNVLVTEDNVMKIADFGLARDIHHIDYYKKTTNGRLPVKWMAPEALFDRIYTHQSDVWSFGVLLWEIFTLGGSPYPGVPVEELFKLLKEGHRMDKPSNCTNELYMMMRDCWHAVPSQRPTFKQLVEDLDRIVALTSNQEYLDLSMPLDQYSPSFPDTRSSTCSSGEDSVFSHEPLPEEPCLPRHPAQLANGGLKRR

SMILES | IC50 [nM] | inhibition at 1 µM [%] | Inhibition (%) of FGFR1 at 1000 nM [%]
Cn1cc(-c2ccc3c(c2)ncn3-c2cc(-c3ccc(F)cc3F)cc(Nc3ccn(C)n3)n2)cn1 [Example 1, 4-(2,4-Difluorophenyl)-N-(1-methyl-1H-pyrazol-3-yl)-6-(5-(1-methyl-1H-pyrazol-4-yl)-1H-benzo[d]imidazol-1-yl)pyridin-2-amine] | 16.5 | 97 | 
Cn1cc(-c2ccc3c(c2)ncn3-c2cc(-c3ccc(F)cc3F)cc(NS(=O)(=O)C3CC3)n2)cn1 [Example 2 (imido), Sodium salt of imido form of N-(4-(2,4-difluorophenyl)-6-(5-(1-methyl-1H-pyrazol-4-yl)-1H-benzo[d]imidazol-1-yl)pyridin-2-yl)cyclopropanesulfonamide] | 3.3 |  | 97
Cn1cc(-c2ccc3c(c2)ncn3-c2cc(-c3ccc(F)cc3F)cc(NS(=O)(=O)C3CC3)n2)cn1 [Example 2, N-(4-(2,4-difluorophenyl)-6-(5-(1-methyl-1H-pyrazol-4-yl)-1H-benzo[d]-imidazol-1-yl)pyridin-2-yl)cyclopropanesulfonamide] | 3.9 | 99 | 
Cn1cc(-c2ccc3c(c2)ncn3-c2cc(-c3ccc(F)cc3)cc(NS(=O)(=O)C3CC3)n2)cn1 [Example 14] | 14.4 | 98 | 
Cn1cc(-c2ccc3c(c2)ncn3-c2cc(-c3ccc(F)cc3)cc(NS(C)(=O)=O)n2)cn1 [Example 16, N-(4-(4-fluorophenyl)-6-(5-(1-methyl-1H-pyrazol-4-yl)-1H-benzo[d]imidazol-1-yl)pyridin-2-yl)methanesulfonamide] | 3.4 | 97 | 
CC(C)S(=O)(=O)Nc1cc(-c2ccc(F)cc2)cc(-n2cnc3cc(-c4cnn(C)c4)ccc32)n1 [Example 17 (imido), Sodium salt of imido form: of N-(4-(4-fluorophenyl)-6-(5-(1-methyl-1H-pyrazol-4-yl)-1H-benzo[d]imidazol-1-yl)pyridin-2-yl)propane-2-sulfonamide] | 5.2 |  | 97
CC(C)S(=O)(=O)Nc1cc(-c2ccc(F)cc2)cc(-n2cnc3cc(-c4cnn(C)c4)ccc32)n1 [Example 17, N-(4-(4-fluorophenyl)-6-(5-(1-methyl-1H-pyrazol-4-yl)-1H-benzo[d]imidazol-1-yl)pyridin-2-yl)propane-2-sulfonamide] | 4.6 | 96 | 
Cn1cc(-c2ccc3c(c2)ncn3-c2cc(-c3ncccc3F)cc(NS(=O)(=O)C3CC3)n2)cn1 [Example 18, N-(3-fluoro-6′-(5-(1-methyl-1H-pyrazol-4-yl)-1H-benzo[d]imidazol-1-yl)-[2,4′-bipyridin]-2-yl)cyclopropanesulfonamide] | 5 |  | 97
CC(=O)Nc1cc(-c2ncccc2F)cc(-n2cnc3cc(-c4cnn(C)c4)ccc32)n1 [Example 19, N-(3-fluoro-6′-(5-(1-methyl-1H-pyrazol-4-yl)-1H-benzo[d]imidazol-1-yl)-[2,4′-bipyridin]-2′-yl)acetamide] | 28.5 | 96 | 
CN(C)CCn1cc(-c2ccc3c(c2)ncn3-c2cc(-c3ccc(F)cc3F)cc(NS(=O)(=O)C3CC3)n2)cn1 [Example 21, N-(4-(2,4-difluorophenyl)-6-(5-(1-(2-(dimethylamino)ethyl)-1H-pyrazol-4-yl)-1H-benzo[d]imidazol-1-yl)pyridin-2-yl)cyclopropanesulfonamide] | 3.7 | 99 | 
Cn1cc(-c2ccc3c(c2)ncn3-c2cc(-c3ccccc3F)nc(NS(=O)(=O)C3CC3)n2)cn1 [Example 22, N-(4-(2-fluorophenyl)-6-(5-(1-methyl-1H-pyrazol-4-yl)-1H-benzo[d]imidazol-1-yl)pyrimidin-2-yl)cyclopropanesulfonamide] | 9.2 | 97 | 
O=S(=O)(Nc1cc(-c2ccc(F)cc2F)cc(-n2cnc3cc(-n4cccn4)ccc32)n1)C1CC1 [Example 23, N-(6-(5-(1H-pyrazol-1-yl)-1H-benzo[d]imidazol-1-yl)-4-(2,4-difluorophenyl)-pyridin-2-yl)cyclopropanesulfonamide] | 10 | 97 | 
Cn1cc(-c2ccc3c(c2)ncn3-c2cc(-c3ncc(F)cc3F)cc(NS(=O)(=O)C3CC3)n2)cn1 [Example 25, N-(3,5-difluoro-6′-(5-(1-methyl-1H-pyrazol-4-yl)-1H-benzo[d]imidazol-1-yl)-[2,4′-bipyridin]-2′-yl)cyclopropanesulfonamide] | 3.1 | 97 | 
CC(=O)Nc1cc(-c2ncc(F)cc2F)cc(-n2cnc3cc(-c4cnn(C)c4)ccc32)n1 [Example 26, N-(3,5-difluoro-6′-(5-(1-methyl-1H-pyrazol-4-yl)-1H-benzo[d]imidazol-1-yl)-[2,4′-bipyridin]-2′-yl)acetamide] | 21.9 | 94 | 

Other lines, results leading:

IC50 [nM] | inhibition at 1 µM [%] | Inhibition (%) of FGFR1 at 1000 nM [%] | SMILES
4.3 | 98 |  | Cn1cc(-c2ccc3c(c2)ncn3-c2cc(-c3ccc(F)cc3F)cc(NS(C)(=O)=O)n2)cn1 [Example 4, N-(4-(2,4-difluorophenyl)-6-(5-(1-methyl-1H-pyrazol-4-yl)-1H-benzo[d]-imidazol-1-yl)pyridin-2-yl)methanesulfonamide]
4.4 |  | 98 | CCS(=O)(=O)Nc1cc(-c2ccc(F)cc2F)cc(-n2cnc3cc(-c4cnn(C)c4)ccc32)n1 [Example 5 (imido), Sodium salt of imido form of N-(4-(2,4-difluorophenyl)-6-(5-(1-methyl-1H-pyrazol-4yl)-1H-benzo[d]imidazol-1-yl)pyridin-2-yl)ethanesulfonamide]
1.1 | 99 |  | CCS(=O)(=O)Nc1cc(-c2ccc(F)cc2F)cc(-n2cnc3cc(-c4cnn(C)c4)ccc32)n1 [Example 5, N-(4-(2,4-difluorophenyl)-6-(5-(1-methyl-1H-pyrazol-4-yl)-1H-benzo[d]-imidazol-1-yl)pyridin-2-yl)ethanesulfonamide]
1.7 |  | 98 | CC(C)S(=O)(=O)Nc1cc(-c2ccc(F)cc2F)cc(-n2cnc3cc(-c4cnn(C)c4)ccc32)n1 [Example 6 (imido), Imido form of N-(4-(2,4-difluorophenyl)-6-(5-(1-methyl-1H-pyrazol-4-yl)-1H-benzo[d]imidazol-1-yl)pyridin-2-yl)propane-2-sulfonamide]
1.7 | 99 |  | CC(C)S(=O)(=O)Nc1cc(-c2ccc(F)cc2F)cc(-n2cnc3cc(-c4cnn(C)c4)ccc32)n1 [Example 6, N-(4-(2,4-difluorophenyl)-6-(5-(1-methyl-1H-pyrazol-4-yl)-1H-benzo[d]-imidazol-1-yl)pyridin-2-yl)propane-2-sulfonamide]
3.3 |  | 97 | Cn1cc(-c2ccc3c(c2)ncn3-c2cc(-c3ccccc3F)cc(NS(=O)(=O)C3CC3)n2)cn1 [Example 8 (imido), Sodium salt of imido form of N-(4-(2-fluorophenyl)-6-(5-(1-methyl-1H-pyrazol-4-yl)-1H-benzo[d]imidazol-1-yl)pyridin-2-yl)cyclopropanesulfonamide]
5.42 | 99 |  | Cn1cc(-c2ccc3c(c2)ncn3-c2cc(-c3ccccc3F)cc(NS(=O)(=O)C3CC3)n2)cn1 [Example 8, N-(4-(2-fluorophenyl)-6-(5-(1-methyl-1H-pyrazol-4-yl)-1H-benzo[d]imidazol-1-yl)pyridin-2-yl)cyclopropanesulfonamide]
5.8 | 97 |  | Cn1cc(-c2ccc3c(c2)ncn3-c2cc(-c3ccccc3F)cc(NS(C)(=O)=O)n2)cn1 [Example 10, N-(4-(2-fluorophenyl)-6-(5-(1-methyl-1H-pyrazol-4-yl)-1H-benzo[d]imidazol-1-yl)pyridin-2-yl)methanesulfonamide]
3.2 |  | 98 | CCS(=O)(=O)Nc1cc(-c2ccccc2F)cc(-n2cnc3cc(-c4cnn(C)c4)ccc32)n1 [Example 11 (imido), Sodium salt of imido form of N-(4-(2-fluorophenyl)-6-(5-(1-methyl-1H-pyrazol-4-yl)-1H-benzo[d]imidazol-1-yl)pyridin-2-yl)ethanesulfonamide]
2.8 | 98 |  | CCS(=O)(=O)Nc1cc(-c2ccccc2F)cc(-n2cnc3cc(-c4cnn(C)c4)ccc32)n1 [Example 11, N-(4-(2-fluorophenyl)-6-(5-(1-methyl-1H-pyrazol-4-yl)-1H-benzo[d]imidazol-1-yl)pyridin-2-yl)ethanesulfonamide]
5.2 |  | 99 | CC(C)S(=O)(=O)Nc1cc(-c2ccccc2F)cc(-n2cnc3cc(-c4cnn(C)c4)ccc32)n1 [Example 12 (imido), Sodium salt of imido form of N-(4-(2-fluorophenyl)-6-(5-(1-methyl-1H-pyrazol-4-yl)-1H-benzo[d]imidazol-1-yl)pyridin-2-yl)propane-2-sulfonamide]
1.5 | 97 |  | CC(C)S(=O)(=O)Nc1cc(-c2ccccc2F)cc(-n2cnc3cc(-c4cnn(C)c4)ccc32)n1 [Example 12, N-(4-(2-fluorophenyl)-6-(5-(1-methyl-1H-pyrazol-4-yl)-1H-benzo[d]imidazol-1-yl)pyridin-2-yl)propane-2-sulfonamide]
